target: RORγ (Homo sapiens (Human), UniProt P51449); experiment: Reporter Gene Assay (RGA): inhibition of RORγ transactivation of a luciferase reporter; assay type: cell-based; settings: transiently transfected HEK 293 cells (Gal4DBD hRORC LBD), 20-24 h incubation
Sequence (P51449 269-508): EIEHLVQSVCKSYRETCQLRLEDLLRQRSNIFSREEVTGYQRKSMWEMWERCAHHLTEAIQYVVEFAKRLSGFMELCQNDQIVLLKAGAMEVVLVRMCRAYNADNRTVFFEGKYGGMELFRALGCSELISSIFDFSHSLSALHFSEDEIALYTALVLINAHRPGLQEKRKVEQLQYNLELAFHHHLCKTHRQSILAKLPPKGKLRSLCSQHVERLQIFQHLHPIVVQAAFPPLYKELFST

SMILES	IC50 [nM]
CNS(=O)(=O)c1ccc(CNc2nc3cnc(-c4c(C)ncnc4C4CC4)nc3n([C@@H](C)C3CC3)c2=O)cc1 [Example 134]	400
CCS(=O)(=O)c1ccc(CNc2nc3cnc(-c4c(OC)ncnc4C4CC4)nc3n(C(C)C)c2=O)cc1 [Example 143]	134
CCS(=O)(=O)c1ccc(CNc2nc3cnc(-c4c(C)ncnc4C4CC4)nc3n([C@@H]3C[C@H]4CC[C@@H]3C4)c2=O)nc1 [Example 220]	390
